Test results from a melting point compilation (Tetko et al.; mined from patent text by program, amines drawn as free bases though some values may be those of a salt).

melting point	Compound
247 to 249 °C	CCCn1c(=O)c2c(nc(C=Cc3cc(OC)c(OC)cc3S(=O)(=O)Nc3ccccc3)n2C)n(CCC)c1=O
203 to 204 °C	CCN1CCc2ccc(Nc3ncc(Br)c(Nc4ccccc4C(=O)NC)n3)cc2CC1
141 to 142 °C	Cc1ccc(C)n1-c1ccc2c(c1)ncn2-c1cccc(-n2ccnc2)c1
100 to 105 °C	CCCCn1cc(-c2nnnn2C)c(=O)c2ccccc21
145 to 154 °C	CCCN(CCCc1c[nH]c2c(Cl)cccc12)C1COc2c(F)ccc(C(N)=O)c2C1 (centres undefined)
155 to 159 °C	O=C1C(=O)c2ccccc2C2=C1SCC1(CCN(CC3CCCO3)CC1)O2 (centres undefined)
100 to 105 °C	Cc1ccccc1NC(=O)C1CCc2nc[nH]c2C1 (centres undefined)
70 to 71 °C	CC(C)[C@H](NC(=O)N(C)Cc1csc(C2CCCC2)n1)C(=O)N[C@@H](Cc1ccccc1)C[C@H](O)[C@H](Cc1ccccc1)NC(=O)OCc1cncs1
98 to 99 °C	CC(C)NC(=O)C1c2cc(NC(=O)c3cc(C(F)(F)F)nn3-c3ncccc3Cl)c(Cl)cc2CC1F (centres undefined)
188 °C	CCOc1cc(Cc2cnc(N)nc2N)cc2c1OC(C)(C)C=C2CC(C)C
230 °C	COc1nc(N)nc(OC)c1C1=NCCN1
78.5 to 79.5 °C	CC(C)N(C(=O)C(F)(F)F)C(C#N)c1ccc(Cl)cc1 (centres undefined)
173 °C	COc1cc(C)cc(OC)c1CCCCCNC(=O)[C@@H](CCCCN)NC(=O)c1cc2ccccc2n1CC(=O)O
69 to 70 °C	CNc1cc(Cl)cc(C)n1
87 °C	OCCON=Cc1ccc2ccccc2c1
194 to 195 °C	CN(Cc1cc(C(F)(F)F)cc(C(F)(F)F)c1)C1CCN(c2ccc(OC[C@@]3(C)Cn4cc([N+](=O)[O-])nc4O3)cc2)CC1
148 to 150 °C	CON=C(Nc1nc(OC)nc(OC)n1)NS(=O)(=O)c1ccccc1S(=O)(=O)OC
145 to 147 °C	CS(=O)(=O)c1ccc(-c2cccn2-c2ccc(F)cc2)cc1
60 °C	CC(C)c1ccc(S(=O)(=O)n2c(COC(C)(C)C(=O)O)cc3cc(Cl)ccc32)cc1
220 to 222 °C	COc1ccc2c(c1[N+](=O)[O-])CNCC(=O)N2
91 to 93 °C	Cc1c(C)c2c(c(C)c1OC=O)SC(CCCI)O2 (centres undefined)
178 to 180 °C	CC(=O)OCC1OC(SC(c2ccccc2)(c2ccccc2)c2ccccc2)C(OC(C)=O)C(OC(C)=O)C1OC(C)=O (centres undefined)
146 to 149 °C	CCN1C(=O)C(C)(C)C(=O)N(C)c2cc(OCCCN3C(=O)Cc4ccccc43)ccc21

melting point	Compound
122 to 124 °C	CCCc1ccc(NC(C)=O)cn1
54.9 to 55.2 °C	CCCCc1ccc(C(=O)NCCCCn2c(CCOC)nc3c(N)nc4ccccc4c32)nc1
197 to 198 °C	c1cc(-c2cncnc2)cc(-n2cnc3cc(-n4cccc4)ccc32)c1
220 to 222 °C	CNc1nc(Cl)nc2c1ncn2C1SC(CO)C(O)C1O (centres undefined)
102 to 104 °C	C[C@H](NC(=O)Cc1ccccc1)C(=O)O
178 to 179 °C	O=C1CCCC2=C1OC(CC(=O)c1ccccc1)(c1ccccc1)C=C2c1ccccc1 (centres undefined)
248 to 250 °C	CC(=C1SC(=O)NC1=O)c1ccc(OCCOc2c(-c3ccc(F)c(F)c3)n(C)c3ccccc3c2=O)cc1
203 to 205 °C	COC(=O)C1=NNC(C)=C(C(=O)OC)C1c1ccccc1[N+](=O)[O-] (centres undefined)
190 °C	N#CNC(=O)c1cc2cc(N3CCN(CCCCc4c[nH]c5ccc(C#N)cc45)CC3)ccc2o1
211 to 212 °C	CN(C)S(=O)(=O)c1cc2c(c(C(=O)O)c1)OC(C)(C)C2
143 to 145 °C	O=C(NCCCCCCCCc1ccccc1)c1cc(-c2cccc(C(F)(F)F)c2)c(OCCO)c(-c2cccc(C(F)(F)F)c2)c1
100 to 105 °C	COc1cccc(CN2Cc3cc(OC)c(O)cc3CC2C)c1 (centres undefined)
193 to 236 °C	CC1(COC2CC3C4CCC5=CC(=O)C=CC5(C)C4(F)C(O)CC3(C)C2(O)C(=O)CCl)CO1 (centres undefined)
115 to 116 °C	COc1cccc(CN2Cc3cc(OC)c(OCc4ccccc4)cc3C(O)C2)c1 (centres undefined)
195 to 196 °C	N#Cc1ccc(Cc2cccc3c2CCN(Cc2cncn2Cc2ccc(C#N)cc2)C3)cc1
82 to 84 °C	CCOC(=O)c1c(O)nc(SCC)n1C(C)C
259 to 262 °C	Cc1cc(C)n(-c2nc(Nc3cccc(Cl)c3)c3ccccc3n2)n1
174 to 175 °C	CCCCCCC(C(=O)OCC)c1ccc(NC(=O)C2c3ccccc3-c3ccccc32)cc1 (centres undefined)
94 to 95 °C	COc1ccc(C(=O)c2ccccc2[N+](=O)[O-])cn1
236 to 237 °C	NC(=O)c1ccc(N)nc1F
134 to 136 °C	FC(F)(F)c1ccc(C=Cc2nc(CNc3ccc(OCCCn4ccnn4)cc3)co2)cc1
107 to 114 °C	O=C(Nc1ccc(C(=O)N2Cc3cccnc3Oc3ccccc32)cn1)c1ccccc1-c1ccccc1
140 to 141 °C	Clc1ccccc1CSc1nnc(-c2ccc3c(c2)CCO3)o1

melting point	Compound
185 to 187 °C	CC(C)(C)C(=O)C(Cl)C(=O)Nc1cc(OC(=O)c2cc(C(C)(C)C)c(O)c(C(C)(C)C)c2)ccc1Cl (centres undefined)
188 to 189 °C	COc1cc(C(=O)O)ccc1Cn1ccc2ccc(CC(=O)NCC3CCCC3)cc21
99 to 102 °C	Cc1ncnc(-c2ccncc2)n1
47 °C	CCCCCCCCCCCCCC(=O)N(CCCCCCCC)CCC(=O)O
212 to 216 °C	CN(C)c1ccc2c(c1)Sc1cc(N(C)C)ccc1N2C(=O)c1cc(C(C)(C)C)c(O)c(C(C)(C)C)c1
235 °C	CN1c2nnnn2-c2ccc(C(O)(c3ccc(Cl)cc3)c3cncn3C)cc2C1c1cccc(Cl)c1 (centres undefined)
74 °C	Cc1cccc(-c2nc3ccc(OCC(C)N(C)C)cc3n2Cc2ccccc2)c1 (centres undefined)
145 to 146 °C	N#Cc1ccc(CC(NC(=O)OCc2ccccc2)C(=O)Nc2cccc(C(=O)NCCC(=O)OCc3ccccc3)c2)cc1 (racemic)
125 to 128 °C	CN(C(=O)CCCOc1ccc2c(c1)CN(CC(=O)O)C(N)=N2)C1CCCCC1
> 275 °C	CN1C(=O)CCC(C)(C)c2cc(C(=O)Nc3ccc(C(=O)O)cc3)ccc21
204 to 206 °C	COC(C)=C(C(=O)OC(c1ccccc1)c1ccccc1)N1C(=O)C(NC(=O)C(NC(=O)OC(C)(C)C)c2ccccc2)C1SS(=O)(=O)c1ccc(C)cc1 (centres undefined)
60 to 61 °C	CCOC(=O)c1ccc(/C=C(\C)c2ccc3c(c2)CCCCO3)cc1
158 °C	CN(C)CC1CCN(c2nc(N3CCOCC3)c3ncnc(N(C)Cc4cccc5ccccc45)c3n2)CC1
90 to 91 °C	CCOC(=O)Cc1nc(-c2ccccc2)oc1-c1ccsc1
193 to 194 °C	CNc1c(C2=CC(C)(C)Oc3ccc(C#N)cc32)c(=O)c1=O
58 to 60 °C	COc1cc(C)c2ccc(Br)cc2n1
97 to 103 °C	O=C(Nc1ccc(Br)cc1CO)C(F)(F)F
231 to 233 °C	COc1ccc(-c2oc3c(CC=C(C)C)c(OC4OC(CO)C(O)C(O)C4O)cc(O)c3c(=O)c2OC2OC(C)C(O)C(O)C2O)cc1 (centres undefined)
165 to 167 °C	Cc1cccc(S(=O)(=O)N2CCn3c(c(C(N)=O)c(Cl)c3-c3ccccc3)C2)c1
173 °C	CCc1oc2ccccc2c1C(=O)c1cc(Br)c(OS(=O)(=O)c2ccc(C(=O)O)c(O)c2)c(Br)c1
160 to 161 °C	COc1ccc(CN2C(=O)C(Oc3ccccc3)C2c2ccc(C(=O)O)cc2)cc1OC (centres undefined)
147 to 148 °C	COc1ccc(CC(=O)c2ccc(OCc3ccccc3)cc2)cc1
120 to 122 °C	Nc1ccc(OCC(=O)N2CC=C(c3ccc(F)cc3)CC2)cc1

melting point	Compound
134 to 135 °C	CCN(CC)C1=NC(NC(=O)CCCCc2ccccc2)C(=O)N(C)c2ccccc21 (centres undefined)
> 270 °C	CC1(C)CCC2=C(C1=O)C(c1ccc(F)c(Br)c1)C1=C(CCS1)N2 (centres undefined)
172 to 175 °C	Cc1[nH]c2ccccc2c1C(=O)CCN(C)C
244 to 246 °C	COc1ccccc1-n1c(=O)[nH]c2c(C(N)=O)nc(C3CCCC3)nc21
127 to 128 °C	CON=C1CCC1N1CCC(Cc2ccc(Cl)cc2)CC1 (centres undefined)
55 to 57 °C	O=C(NCc1ccccc1)c1ccnc(NC(=O)C2CCCC2)c1
99.4 to 100 °C	N#CCc1cccc2c(C3CCCC3)nccc12
76 °C	CC(C)(C)OC(=O)N1C(=O)C(C2=COc3ccccc3O2)=C(c2cn(C(=O)OC(C)(C)C)c3ccc(OCc4ccccc4)cc23)C1=O
55 to 58 °C	CC(=O)OC(C)c1ncnc(Cl)c1I (centres undefined)
161 to 163 °C	CCN1COc2cc3c(=O)n(CCc4cccc(F)c4)nnc3cc2C1=O
143 to 145 °C	CCCCCCC1c2cc(CBr)ccc2-c2ccc(CBr)cc21
135 to 137 °C	CN(C(N)=O)[C@@H]1c2cc(C#N)ccc2OC(C)(C)[C@H]1O (relative stereo)
> 250 °C	O=C(O)Cn1cc(C(=O)O)c(=O)c2ccccc(=O)c21
255 to 257 °C	CCCC(=O)c1cnc2c(OC)csc2c1Nc1ccc(O)cc1C
228 to 230 °C	Cc1ccc(-c2cc(C(N)=O)c(N)s2)cc1
123 to 124 °C	OCCCOc1ccc(-c2ccccc2)cc1
110 to 111 °C	CC(C)N(CCC(CCN(C(C)C)C(C)C)(C(N)=O)c1ccc(-c2ccccc2)cc1)C(C)C
229 to 230 °C	COC(=O)c1cccc(C2C(C#N)=C(N)Oc3c2ccc2cnccc32)c1 (centres undefined)
139 to 143 °C	CCOC(=O)C(C#N)=CNc1ncccc1C
95 to 96 °C	O=C1CCC(CC(O)C(=O)OCc2ccccc2)N1 (centres undefined)

Compound	melting point
CCCN(c1ccncc1)N1C(=O)C2(CCN(C)CC2)c2ccccc21	125 to 127 °C
N#CC1CN1C(=O)C1(c2ccc(Cl)cc2)CCCC1 (centres undefined)	80 to 82 °C
Cc1ccc2c(c1)oc1c(C(=O)NN3CCOCC3)nn(-c3ccc(Cl)cc3Cl)c12	178 to 180 °C
CNc1nc(C)c(-c2nc3ccccc3c(=O)n2-c2ccccc2C)s1	218 to 220 °C
CCCN(CCC)C1Cc2c[nH]c3ccc(C(C)=O)c(c23)C1 (centres undefined)	148 to 150 °C
